Legend:
Acute leukemia = settings: drug combined with vitamin B12 depletion (nitrous oxide); acute leukemia/rats; cited from earlier work
Myelocytic leukemia = settings: drug combined with vitamin B12 depletion (nitrous oxide); myelocytic leukemia/rats; cited from earlier work
[1] = system: Raji Burkitt lymphoma cells; assay: Subcutaneous Raji Burkitt lymphoma in nu/nu mice, tumor size; assay type: in vivo
Description: Nu/nu mice are injected subcutaneously with 1 million Raji Burkitt lymphoma cells. After two weeks, barely palpable nodules are present at the injection site. Measurements are made in three dimensions with a planarimeter and equally sized tumors assigned to experimental groups of 10 mice. […] Therapy is administered once weekly. Controls of antibody and drug alone, as well as vehicle controls, are included. Mice are monitored visually for toxicity, death, and tumor size weekly for 8 weeks, at which time the experiment is terminated, the mice sacrificed, and the tumors removed and weighed.

[2] = system: Raji Burkitt lymphoma cells; assay: Cell viability by reduction of tetrazolium dye, three days, with and without methotrexate; assay type: cell-based, human; settings: 100% lysis control = .047
Description: Antibody D2/20 at a range of concentrations is incubated with Raji Burkitt lymphoma cells in microtiter plates for three days with and without chemotherapeutic drugs. Cell viability is measured by reduction of tetrazolium dye. Only viable cells metabolize the dye to an insoluble, colored product which is subsequently solubilized and read in a spectrophotometer.

**Q.** With `O=c1[nH]cc(F)c(=O)[nH]1` [Clone 5-FU, 5-fluorouracil] as the compound, how does the “Therapeutic Results” value (Acute leukemia) read?
**A.** additive

**Q.** And the “Therapeutic Results” value (Myelocytic leukemia)?
**A.** additive

**Q.** For `CN(Cc1cnc2nc(N)nc(N)c2n1)c1ccc(C(=O)N[C@@H](CCC(=O)O)C(=O)O)cc1` [Methotrexate, methotrexate], which “average of serial tumor measurements converted to weight” value (“average” below) ([1]; week 1, methotrexate 5 Milligrams/M^2 i.v. once weekly) is on record?
**A.** .07 grams

**Q.** What about the “average” value ([1]; week 1, methotrexate 10 Milligrams/M^2 i.v. once weekly) of the same compound?
**A.** .05 grams

**Q.** And the “average” value ([1]; week 1, methotrexate 50 Milligrams/M^2 i.v. once weekly)?
**A.** .04 grams

**Q.** And the “average” value ([1]; week 2, methotrexate 5 Milligrams/M^2 i.v. once weekly)?
**A.** .14 grams

**Q.** And the “average” value ([1]; week 2, methotrexate 10 Milligrams/M^2 i.v. once weekly)?
**A.** .12 grams

**Q.** What about the “average” value ([1]; week 2, methotrexate 50 Milligrams/M^2 i.v. once weekly) of the same compound?
**A.** .10 grams

**Q.** And the “average” value ([1]; week 3, methotrexate 5 Milligrams/M^2 i.v. once weekly)?
**A.** .43 grams

**Q.** And the “average” value ([1]; week 3, methotrexate 10 Milligrams/M^2 i.v. once weekly)?
**A.** .30 grams

**Q.** What about the “average” value ([1]; week 3, methotrexate 50 Milligrams/M^2 i.v. once weekly) of the same compound?
**A.** .25 grams

**Q.** And the “average” value ([1]; week 4, methotrexate 5 Milligrams/M^2 i.v. once weekly)?
**A.** .70 grams

**Q.** And the “average” value ([1]; week 4, methotrexate 10 Milligrams/M^2 i.v. once weekly)?
**A.** .53 grams

**Q.** What about the “average” value ([1]; week 4, methotrexate 50 Milligrams/M^2 i.v. once weekly) of the same compound?
**A.** .41 grams

**Q.** And the “average” value ([1]; week 5, methotrexate 5 Milligrams/M^2 i.v. once weekly)?
**A.** 1.2 grams

**Q.** And the “average” value ([1]; week 5, methotrexate 10 Milligrams/M^2 i.v. once weekly)?
**A.** .92 grams

**Q.** And the “average” value ([1]; week 5, methotrexate 50 Milligrams/M^2 i.v. once weekly)?
**A.** .73 grams

**Q.** What about the “average” value ([1]; week 6, methotrexate 5 Milligrams/M^2 i.v. once weekly) of the same compound?
**A.** 2.6 grams

**Q.** And the “average” value ([1]; week 6, methotrexate 10 Milligrams/M^2 i.v. once weekly)?
**A.** 2.1 grams

**Q.** And the “average” value ([1]; week 6, methotrexate 50 Milligrams/M^2 i.v. once weekly)?
**A.** 1.4 grams

**Q.** What about the “average” value ([1]; week 7, methotrexate 5 Milligrams/M^2 i.v. once weekly) of the same compound?
**A.** 4.8 grams

**Q.** And the “average” value ([1]; week 7, methotrexate 10 Milligrams/M^2 i.v. once weekly)?
**A.** 4.8 grams

**Q.** What about the “average” value ([1]; week 7, methotrexate 50 Milligrams/M^2 i.v. once weekly) of the same compound?
**A.** 2.3 grams

**Q.** What about the “average” value ([1]; week 8, methotrexate 5 Milligrams/M^2 i.v. once weekly) of the same compound?
**A.** 7.2 grams

**Q.** And the “average” value ([1]; week 8, methotrexate 10 Milligrams/M^2 i.v. once weekly)?
**A.** 6.9 grams

**Q.** What about the “average” value ([1]; week 8, methotrexate 50 Milligrams/M^2 i.v. once weekly) of the same compound?
**A.** 3.4 grams

**Q.** And the “cell viability, tetrazolium dye reading” value ([2]; antibody 0, methotrexate 0.1 micrograms/ml)?
**A.** .993

**Q.** And the “cell viability, tetrazolium dye reading” value ([2]; antibody 0, methotrexate 1 micrograms/ml)?
**A.** .798

**Q.** And the “Therapeutic Results” value (Acute leukemia)?
**A.** synergistic

**Q.** And the “Therapeutic Results” value (Myelocytic leukemia)?
**A.** synergistic

**Q.** What does the source list for `NC1(C(=O)O)CCCC1` [cycloleucine]?
**A.** Therapeutic Results (Acute leukemia): synergistic; Therapeutic Results (Myelocytic leukemia): additive
